System: nitrification
Test: Example 5: soil incubation in bottles with ammonium sulfate, DMPSA, DCD or mixtures, 5 to 15° C., 0 up to 56 days; recovery NH4 (RE/RC), net recovery NH4 (NE/NC), inhibition of NO3 formation (IE/IC, Böhland; Colby)
Design: unit not given here
Method: 100 g soil is filled into 500 ml plastic bottles (e.g. soil sampled from the field) and is moistened to 50% water holding capacity. The soil is incubated at 20° C. for two weeks to activate the microbial biomass. 1 ml test solution, containing the compositions and mixtures of the invention in the appropriate concentration, or DMSO and 5 to 10 mg nitrogen in the form of ammoniumsulfate-N is added to the soil and everything mixed well. Bottles are capped but loosely to allow air exchange. The bottles are then incubated at 5 to 15° C. for 0 up to 56 days.
For analysis, 300 ml of a 1% K2SO4-solution is added to the bottle containing the soil and shaken for 2 hrs in a horizontal shaker at 150 rpm. Then the whole solution is filtered through a Macherey-Nagel Filter MN 807′/. Ammonium and nitrate content is then analyzed in the filtrate in an autoanalyzer at 550 nm (Merck, AA11).
The Böhland equation is described in Böhland, H., et al. (1973) “Mittel zur Hemmung bzw. Regelung der Nitrifikation von Ammoniumstickstoff in Kulturböden”. DDR-Wirtschaftspatent (Economic patent of the German Democratic Republic) C 05c 169 727. Cited by: Peschke, H. (1985) “Zur Bewertung der inhibierenden Wirkung von Nitrifiziden im Boden”, Zbl. Mikrobiol. 140, pp. 583-588.

2-(3,4-dimethyl-1H-pyrazol-1-yl)succinic acid and/or 2-(4,5-dimethyl-1H-pyrazol-1-yl)succinic acid [DMPSA]
IE inhibition of NO3 formation (IT10° C., DAT28, % a.i.: DMPSA 0.50, DCD 0.0125, DMPSA + DCD 0.50 + 0.0125 (40:1)): 62 | IE inhibition of NO3 formation (IT10° C., DAT28, % a.i.: DMPSA 0.50, DCD 0.0143, DMPSA + DCD 0.50 + 0.0143 (35:1)): 62 | IE inhibition of NO3 formation (IT10° C., DAT28, % a.i.: DMPSA 0.50, DCD 0.0167, DMPSA + DCD 0.50 + 0.0167 (30:1)): 62 | IE inhibition of NO3 formation (IT10° C., DAT30, % a.i.: DMPSA 0.5, DCD 1, DMPSA + DCD 0.5 + 1 (1:2)): 79 | IE inhibition of NO3 formation (IT10° C., DAT30, % a.i.: DMPSA 0.5, DCD 3, DMPSA + DCD 0.5 + 3 (1:6)): 79 | IE (inhibition of NO3 formation, Böhland) (IT10° C., DAT42, % a.i. DMPSA 0.25, DCD 1): 66 | IE (inhibition of NO3 formation, Böhland) (IT10° C., DAT42, % a.i. DMPSA 0.25, DCD 3): 66 | IE (inhibition of NO3 formation, Böhland) (IT10° C., DAT42, % a.i. DMPSA 0.30, DCD 0.05): 46 | IE (inhibition of NO3 formation, Böhland) (IT10° C., DAT42, % a.i. DMPSA 0.50, DCD 0.08): 52 | IE (inhibition of NO3 formation, Böhland) (IT10° C., DAT56, % a.i. DMPSA 0.25, DCD 1): 65 | IE (inhibition of NO3 formation, Böhland) (IT10° C., DAT56, % a.i. DMPSA 0.25, DCD 3): 65 | IE (inhibition of NO3 formation, Böhland) (IT10° C., DAT56, % a.i. DMPSA 0.30, DCD 0.05): 47 | IE (inhibition of NO3 formation, Böhland) (IT10° C., DAT56, % a.i. DMPSA 0.50, DCD 0.08): 47 | IE inhibition of NO3 formation (IT15° C., DAT10, % a.i.: DMPSA 0.5, DCD 1, DMPSA + DCD 0.5 + 1 (1:2)): 50 | IE inhibition of NO3 formation (IT15° C., DAT10, % a.i.: DMPSA 0.5, DCD 3, DMPSA + DCD 0.5 + 3 (1:6)): 50 | IE inhibition of NO3 formation (IT15° C., DAT20, % a.i.: DMPSA 0.5, DCD 1, DMPSA + DCD 0.5 + 1 (1:2)): 74 | IE inhibition of NO3 formation (IT15° C., DAT20, % a.i.: DMPSA 0.5, DCD 3, DMPSA + DCD 0.5 + 3 (1:6)): 74 | IE (inhibition of NO3 formation, Böhland) (IT15° C., DAT28, % a.i. DMPSA 0.25, DCD 1): 70 | IE (inhibition of NO3 formation, Böhland) (IT15° C., DAT28, % a.i. DMPSA 0.25, DCD 3): 70 | IE inhibition of NO3 formation (IT15° C., DAT28, % a.i.: DMPSA 0.30, DCD 0.05, DMPSA + DCD 0.30 + 0.05 (6:1)): 39 | IE inhibition of NO3 formation (IT15° C., DAT28, % a.i.: DMPSA 0.50, DCD 0.0125, DMPSA + DCD 0.50 + 0.0125 (40:1)): 44 | IE inhibition of NO3 formation (IT15° C., DAT28, % a.i.: DMPSA 0.50, DCD 0.0143, DMPSA + DCD 0.50 + 0.0143 (35:1)): 44 | IE inhibition of NO3 formation (IT15° C., DAT28, % a.i.: DMPSA 0.50, DCD 0.0167, DMPSA + DCD 0.50 + 0.0167 (30:1)): 44 | IE inhibition of NO3 formation (IT15° C., DAT28, % a.i.: DMPSA 0.50, DCD 0.08, DMPSA + DCD 0.50 + 0.08 (6.25:1)): 40 | IE inhibition of NO3 formation (IT15° C., DAT30, % a.i.: DMPSA 0.5, DCD 1, DMPSA + DCD 0.5 + 1 (1:2)): 74 | IE inhibition of NO3 formation (IT15° C., DAT30, % a.i.: DMPSA 0.5, DCD 3, DMPSA + DCD 0.5 + 3 (1:6)): 74 | IE (inhibition of NO3 formation, Böhland) (IT15° C., DAT42, % a.i. DMPSA 0.25, DCD 1): 55 | IE (inhibition of NO3 formation, Böhland) (IT15° C., DAT42, % a.i. DMPSA 0.25, DCD 3): 55 | IE inhibition of NO3 formation (IT15° C., DAT42, % a.i.: DMPSA 0.30, DCD 0.05, DMPSA + DCD 0.30 + 0.05 (6:1)): 29 | IE inhibition of NO3 formation (IT15° C., DAT42, % a.i.: DMPSA 0.50, DCD 0.08, DMPSA + DCD 0.50 + 0.08 (6.25:1)): 44 | IE (inhibition of NO3 formation, Böhland) (IT15° C., DAT56, % a.i. DMPSA 0.25, DCD 1): 35 | IE (inhibition of NO3 formation, Böhland) (IT15° C., DAT56, % a.i. DMPSA 0.25, DCD 3): 35 | IE inhibition of NO3 formation (IT15° C., DAT56, % a.i.: DMPSA 0.30, DCD 0.05, DMPSA + DCD 0.30 + 0.05 (6:1)): 27 | IE inhibition of NO3 formation (IT15° C., DAT56, % a.i.: DMPSA 0.50, DCD 0.08, DMPSA + DCD 0.50 + 0.08 (6.25:1)): 27

Source: patent publication US20210371351A1, “MIXTURES COMPRISING AT LEAST TWO DIFFERENT NITRIFICATION INHIBITORS SELECTED FROM 2-(3,4-DIMETHYL-1H-PYRAZOL-1-YL)SUCCINIC ACID (DMPSA), 3,4-DIMETHYL PYRAZOLIUM GLYCOLATE (DMPG) AND OTHER COMPOUNDS” (BASF SE, priority 2017, published 2021)
